Values quoted from earlier work as cited in patent US11866384B2, “Compositions and their use in agricultural applications” (SYNSUS PRIVATE LABEL PARTNERS, LLC, priority 2018, dated 2024).

Which solubility in water does the source give for dicyandiamide here?
The solubility in water was “about 41 grams per liter”.
